Measured values reported in patent US12653187B2, “Sulfur based pesticides” (AGRONATURALIS LTD, priority 2019, dated 2026).

Experiment: Surface tension and equilibrium contact angle by drop shape analyser (Example 7)
Type: physicochemical
Procedure: The wetting properties of the individual surfactants and in combination were evaluated by dissolving the surfactants at various concentrations in deionised water. Surface tension and equilibrium contact angle were measured in triplicate using a drop shape analyser with results given in Table 9 below.

Structure (SMILES)	contact angle (°) (0.005 % w/w in deionised water)	surface tension (mN/m) (0.005 % w/w in deionised water)	contact angle (°) (0.010 % w/w in deionised water)	surface tension (mN/m) (0.010 % w/w in deionised water)	contact angle (°) (0.025 % w/w in deionised water)	surface tension (mN/m) (0.025 % w/w in deionised water)	contact angle (°) (0.050 % w/w in deionised water)	surface tension (mN/m) (0.050 % w/w in deionised water)	contact angle (°) (0.100 % w/w in deionised water)	surface tension (mN/m) (0.100 % w/w in deionised water)	contact angle (°) (0.200 % w/w in deionised water)	surface tension (mN/m) (0.200 % w/w in deionised water)	contact angle (°) (0.250 % w/w in deionised water)	surface tension (mN/m) (0.250 % w/w in deionised water)	contact angle (°) (0.500 % w/w in deionised water)	surface tension (mN/m) (0.500 % w/w in deionised water)
CCCCC(CC)COC(=O)CC(C(=O)OCC(CC)CCCC)S(=O)(=O)[O-].[Na+] (stereo not shown) [sodium dioctylsulfosuccinate]	54.1 °	44.3 mN/m	38.2 °	43.6 mN/m	35.4 °	34.7 mN/m	31.5 °	32.2 mN/m	28.7 °	28.3 mN/m	24.4 °	26.8 mN/m	22.8 °	26.1 mN/m	21.4 °	25.3 mN/m
CCCCCCCCCCCCOS(=O)(=O)[O-].[Na+] [sodium lauryl sulfate]	107.1 °	70.6 mN/m	–	–	72.8 °	56.8 mN/m	63.9 °	46.1 mN/m	55.3 °	37.2 mN/m	51.5 °	34.2 mN/m	50.6 °	33.4 mN/m	–	–
